Experimental data as given in patent publication US9226913B2, “Methods of treating cancer using a combination of an immunomodulatory compound and an artemisinin or a derivative thereof” (Celgene Corporation, priority 2010, dated 2016).

Legend:
Assay type in all cases: cell-based, human
MCF7 cells = experiment: MTT proliferation assay, 72 hr (Example 6.2); conditions: Homo sapiens, MCF7, 72 h, mean ± SD of at least five experiments
Protocol: (§1) The human cancer cell lines; MCF7 (breast), HCT116 (colon) and A549 (lung) (Cancer Research UK, London, UK), were grown in either DMEM (Sigma) or RPMI (Sigma) media supplemented with 10% foetal bovine serum, 2 mM L-glutamine, 1% penicillin/streptomycin.
(§2) To study the effect of each agent on cell growth, cells growing exponentially were added to 96-well plates at a density of 3×10^4/well. Drugs (0.1-100 μM) were then added to the wells, ensuring an equal volume of 200 μl across the plate. Cell number was measured at 72 hr using a standard methylthiazoletetrazolium (MTT)-based assay without modifications as described previously (Gordi et al., 2004, Toxicol. Lett. 147: 99-107). Briefly, MTT (Sigma) was added to each well to give a working concentration of 0.4 mg/ml, and plates returned to the incubator for a further 1 hr. After this time, the medium was aspirated off, 200 μl of DMSO was then added to each well, and plates agitated gently for 5 min before measuring optical density at 540 nm in each well.

A549 cells = experiment: MTT proliferation assay, 72 hr (Example 6.2); conditions: Homo sapiens, A549, 72 h, mean ± SD of at least five experiments
Protocol: as §1, §2

HCT116^norm cells = experiment: MTT proliferation assay, 72 hr (Example 6.2); conditions: Homo sapiens, 72 h, MTT, mean ± SD of at least five experiments, read-out: IC50
Protocol: as §1, §2

cyclin B = experiment: Immunoblotting analysis (Example 6.2)
Protocol: (§3) Cells were harvested and total cellular protein was solubilised in lysis buffer (New England Biolabs, Hitchin, UK) and resolved by Tris-glycine electrophoresis using a 4-12% bis-tris gradient-gel. Following transfer of proteins to 0.45 μm nitrocellulose membranes, blocking was performed in 5% (w/v) non-fat milk in TTBS [0.5% (v/v) Tween-20 in TBS (50 mM Tris, 150 mM NaCl, pH 8.0)]. Primary antibody probing was performed with anti-p21, anti-Bax, anti-CDK4, anti-cyclin D1, anti-pRb or anti-cyclin B1. All primary antibodies were obtained from New England Biolabs (Hitchin, UK) and used at a dilution of 1:1,000, unless stated otherwise. Anti-GAPDH was used as a loading control (1:2,000—New England). Following three washing steps in TTBS, horseradish peroxidase-conjugated anti-species IgG was used as the secondary antibody (Amersham Biosciences Ltd., Little Chalfont, UK). Bands were visualised by the ECL-plus detection system (Amersham).

Bax = experiment: Immunoblotting analysis (Example 6.2)
Protocol: as §3

HCT116^poly cells = experiment: MTT proliferation assay, 72 hr (Example 6.2); conditions: Homo sapiens, HCT116^poly (polyploid extended-passage variant)
Protocol: as §2

IC50 (MCF7 cells)	IC50 (A549 cells)	IC50 (HCT116^norm cells)	IC50 (HCT116^poly cells)	Compound	cyclin B level (cyclin B; HCT116^norm cells)	cyclin B level (cyclin B; HCT116^poly cells)	BAX level (Bax; HCT116^norm cells)	BAX level (Bax; HCT116^poly cells)
2.3 ± 0.94 µM	9.8 ± 1.7 µM	1.92 ± 0.35 µM	–	C[C@H]1[C@H](OC(=O)CCC(=O)O)O[C@@H]2O[C@@]3(C)CC[C@H]4[C@H](C)CC[C@@H]1[C@@]24OO3 [Artesunate, artesunate]	decrease	increase	no effect	decrease
1.9 ± 0.75 µM	14 ± 1.6 µM	–	15 µM	Nc1ccn([C@@H]2O[C@H](CO)[C@@H](O)C2(F)F)c(=O)n1 [Gemcitabine, gemcitabine]	–	–	–	–
